Results taken from patent US20180214463A1, “USE OF PHYTIC ACID OR THE SALTS THEREOF, ALONE OR COMBINED WITH B6 VITAMERS, FOR PREVENTING THE FORMATION OF ADVANCED GLYCATION END-PRODUCT” (UNIVERSITAT DE LES ILLES BALEARS, priority 2015, published 2018).

Tests used:
formation of AGEs = test: In vitro formation of AGEs (ribose, arginine, lysine, Fe3+; fluorescence at 7 days); type: biochemical; details: 37° C., vs control without inhibitors
Procedure: In an in vitro study, the inhibiting effect of phytate alone or in combination with pyridoxamine on the formation of AGEs was compared (see FIG. 2). […] In these studies, the formation of AGEs was induced by incubating a reaction mixture containing ribose (200 mM) (taken as the model reducing sugar), 1 mM arginine, 2 mM lysine (as glycation targets), and 2 μM Fe^3 (as a glycation catalyzer) with various concentrations of phytate and pyridoxamine alone or in combination at 37° C. for 7 days (in a 0.2 M phosphate buffer). The quantity of AGEs present at 7 days was determined by fluorescence.

diabetic patients = test: Clinical trial of phytate (phytin) in diabetic patients: plasma HbA1c and AGEs, urinary phytate; type: in vivo, human

**Q.** Which “inhibition of the formation of AGEs” value (formation of AGEs; 1 μM inhibitor alone) does the source give for `O=P(O)(O)O[C@H]1[C@H](OP(=O)(O)O)[C@@H](OP(=O)(O)O)[C@H](OP(=O)(O)O)[C@@H](OP(=O)(O)O)[C@H]1OP(=O)(O)O` [phytate, myo-inositol-hexaphosphate] here?
**A.** The value was 12.7%.

**Q.** What about the “inhibition of the formation of AGEs” value (formation of AGEs; 2 μM inhibitor alone) of the same compound?
**A.** Its value is 19.9%.

**Q.** And the “decrease in plasma AGEs” value (diabetic patients; 1,140 mg phytate (as phytin) daily for 3 months, 33 diabetic patients, p<0.001)?
**A.** Its value is about 25.1%.

**Q.** What about the “decrease in plasma glycated hemoglobin (HbA1c)” value (diabetic patients; 1,140 mg phytate (as phytin) daily for 3 months, 33 diabetic patients, p=0.017) of the same compound?
**A.** The value was about 3.9%.

**Q.** And the “increase in the urinary excretion of phytate” value (diabetic patients; 1,140 mg phytate (as phytin) daily for 3 months, p=0.026)?
**A.** The value was 33.6%.

**Q.** And the “plasma levels of HbA1c and AGEs after withdrawal” value (diabetic patients; three months without phytate, after three months of consuming it)?
**A.** Its value is “returning to levels similar to the baselines”.

**Q.** `Cc1ncc(CO)c(CN)c1O` [pyridoxamine] was tested. Which “inhibition of the formation of AGEs” value (formation of AGEs; 1 μM inhibitor alone) did it give?
**A.** Its value is 17.5%.

**Q.** And the “inhibition of the formation of AGEs” value (formation of AGEs; 2.5 μM inhibitor alone)?
**A.** The value was 28.2%.
